In brackets after ≈: the same amount, converted by molar mass. Where two headings read alike, the source gives them in different places. One block for each compound: values may come before it.
Assays:
[1] = Third stability study, parenteral solution 20 mg/ml; format: physicochemical; conditions: 20 mg/ml parenteral solution
Description: The favorable stability of the oral and parenteral solutions of this invention have been established in numerous tests. The criterion of stability being the lack of precipitation of the hydroylsis product 2-chloro-dibenz[b,f][1,4]oxazepin-11(1OH)-one. […] Three such studies follow:
In the third test a parenteral solution of the active ingredient at a concentration of 20 mg/ml was prepared as described in the second stability study.

[2] = Crystallization/solubility behaviour with and without Polysorbate 80; format: physicochemical
[3] = Second stability study, parenteral solution 15 mg/ml; format: physicochemical; conditions: 70% propylene glycol, pH 6.0
Source text: (§1) The favorable stability of the oral and parenteral solutions of this invention have been established in numerous tests. The criterion of stability being the lack of precipitation of the hydroylsis product 2-chloro-dibenz[b,f][1,4]oxazepin-11(1OH)-one. […]

[4] = Solubility and stability in water and near neutral/basic liquids; format: physicochemical
[5] = format: physicochemical; conditions: 10 mg/ml, pH 6.0, 15 months
Source text: as §1

[6] = Toxicity of hydrolysis product (statement)
[7] = Stability of solutions: lack of precipitation of the hydrolysis product; format: physicochemical; conditions: in the new solutions; below this concentration
Source text: as §1

Hydrolysis Product ([1]; 42° C, 1 Month): 146 µg/mL | Potency ([1]; 42° C, 1 Month): 21.8 mg/mL (≈ 66.5 mM) | Hydrolysis Product ([1]; 42° C, 2 Months): 232 µg/mL | Potency ([1]; 42° C, 2 Months): 20.5 mg/mL (≈ 62.5 mM) | Hydrolysis Product ([1]; 42° C, 4 Months): 436 µg/mL | Potency ([1]; 42° C, 4 Months): 20.2 mg/mL (≈ 61.6 mM) | Hydrolysis Product ([1]; 56° C, 1 Month): 374 µg/mL | Potency ([1]; 56° C, 1 Month): 20.6 mg/mL (≈ 62.8 mM) | Hydrolysis Product ([1]; 56° C, 2 Months): 732 µg/mL | Potency ([1]; 56° C, 2 Months): 19.4 mg/mL (≈ 59.2 mM) | Hydrolysis Product ([1]; 56° C, 2 Weeks): 185 µg/mL | Potency ([1]; 56° C, 2 Weeks): 21.0 mg/mL (≈ 64.1 mM) | Hydrolysis Product ([1]; 70° C, 1 Week): 480 µg/mL | Physical Appearance ([1]; 70° C, 1 Week): Precipitate | Potency ([1]; 70° C, 1 Week): 20.7 mg/mL (≈ 63.1 mM) | Hydrolysis Product ([1]; 70° C, 2 Weeks): 623 µg/mL | Potency ([1]; 70° C, 2 Weeks): 20.6 mg/mL (≈ 62.8 mM) | Hydrolysis Product ([1]; Fresh): 33.0 µg/mL | Physical Appearance ([1]; Fresh): Clear | Potency ([1]; Fresh): 21.6 mg/mL (≈ 65.9 mM) | Hydrolysis Product ([1]; Room Temp., 2 Months): 62.7 µg/mL | Potency ([1]; Room Temp., 2 Months): 21.1 mg/mL (≈ 64.4 mM) | Hydrolysis Product ([1]; Room Temp., 4 Months): 78 µg/mL | Potency ([1]; Room Temp., 4 Months): 22.3 mg/mL (≈ 68 mM) | Hydrolysis Product ([1]; Room Temp., 6 Months): 116 µg/mL | Potency ([1]; Room Temp., 6 Months): 20.8 mg/mL (≈ 63.5 mM) | Hydrolysis Product ([1]; Room Temp., 11 Months): 160 µg/mL | Potency ([1]; Room Temp., 11 Months): 20.7 mg/mL (≈ 63.1 mM) | Hydrolysis Product ([1]; Room Temp., 13 Months): 184 µg/mL | Potency ([1]; Room Temp., 13 Months): 20.6 mg/mL (≈ 62.8 mM) | Hydrolysis Product ([1]; Room Temp., 18 Months): 340 µg/mL | Potency ([1]; Room Temp., 18 Months): 20.5 mg/mL (≈ 62.5 mM) | Effect of Polysorbate 80 on solubility level in 70% aqueous propylene glycol ([2]; 70% aqueous propylene glycol with Polysorbate 80): raises the solubility level | Effect of Polysorbate 80 on crystallization during intramuscular administration ([2]; 70% aqueous propylene glycol with Polysorbate 80 (about 2% to about 10%)): eliminates the crystallization | Crystallization when parenterally administered to body fluids ([2]; body fluids, pH about 7.0): exhibits a tendency to crystallize | Crystallization from neutral or basic media ([2]; neutral or basic media): crystallizes from neutral or basic media | Precipitation on dilution with non-acidic foods or beverages ([2]; oral concentrate without polysorbate 80): precipitates on dilution | Hydrolysis Product ([3]; 42° C, 1 Month): 124 µg/mL | Potency ([3]; 42° C, 1 Month): 16.0 mg/mL (≈ 48.8 mM) | Hydrolysis Product ([3]; 42° C, 2 Months): 192 µg/mL | Potency ([3]; 42° C, 2 Months): 14.5 mg/mL (≈ 44.2 mM) | Hydrolysis Product ([3]; 42° C, 4 Months): 340 µg/mL | Potency ([3]; 42° C, 4 Months): 15.5 mg/mL (≈ 47.3 mM) | Hydrolysis Product ([3]; 56° C, 1 Month): 320 µg/mL | Potency ([3]; 56° C, 1 Month): 16.0 mg/mL (≈ 48.8 mM) | Hydrolysis Product ([3]; 56° C, 2 Months): 580 µg/mL | Potency ([3]; 56° C, 2 Months): 14.5 mg/mL (≈ 44.2 mM) | Hydrolysis Product ([3]; 56° C, 2 Weeks): 163 µg/mL | Potency ([3]; 56° C, 2 Weeks): 15.3 mg/mL (≈ 46.7 mM) | Hydrolysis Product ([3]; 70° C, 1 Week): 370 µg/mL | Physical Appearance ([3]; 70° C, 1 Week): Precipitate | Potency ([3]; 70° C, 1 Week): 15.0 mg/mL (≈ 45.8 mM) | Hydrolysis Product ([3]; 70° C, 2 Weeks): 467 µg/mL | Potency ([3]; 70° C, 2 Weeks): 14.8 mg/mL (≈ 45.1 mM) | Hydrolysis Product ([3]; Fresh): 26 µg/mL | Physical Appearance ([3]; Fresh): Clear | Potency ([3]; Fresh): 16.0 mg/mL (≈ 48.8 mM) | Hydrolysis Product ([3]; Room Temp., 2 Months): 55 µg/mL | Potency ([3]; Room Temp., 2 Months): 15.4 mg/mL (≈ 47 mM) | Hydrolysis Product ([3]; Room Temp., 4 Months): 67 µg/mL | Potency ([3]; Room Temp., 4 Months): 15.6 mg/mL (≈ 47.6 mM) | Hydrolysis Product ([3]; Room Temp., 6 Months): 94 µg/mL | Potency ([3]; Room Temp., 6 Months): 15.6 mg/mL (≈ 47.6 mM) | Hydrolysis Product ([3]; Room Temp., 11 Months): 142 µg/mL | Potency ([3]; Room Temp., 11 Months): 15.4 mg/mL (≈ 47 mM) | Hydrolysis Product ([3]; Room Temp., 13 Months): 144 µg/mL | Potency ([3]; Room Temp., 13 Months): 15.1 mg/mL (≈ 46.1 mM) | Hydrolysis Product ([3]; Room Temp., 18 Months): 260 µg/mL | Potency ([3]; Room Temp., 18 Months): 14.3 mg/mL (≈ 43.6 mM) | Solubility in liquids having a basic or near neutral pH ([4]; basic or near neutral pH): low solubility | Solubility in water [4]: low solubility | Hydrolysis Product ([5]; 50% propylene glycol): 120 µg/mL | Hydrolysis Product ([5]; 60% propylene glycol): 110 µg/mL | Hydrolysis Product ([5]; 70% propylene glycol): 100 µg/mL
Compound: CN1CCN(C2=Nc3ccccc3Oc3ccc(Cl)cc32)CC1 [2-chloro-11-(4-methyl-1-piperazinyl)-dibenz[b,f][1,4]oxazepine]

Compound: O=C1Nc2ccccc2Oc2ccc(Cl)cc21 [2-chloro-dibenz[b,f][1,4]oxazepin-11(10H)-one]
Toxicity [6]: nontoxic | Solubility in water [4]: extremely insoluable | Concentration at which crystallization of hydrolysis product does not occur [7]: below 500 mcg/ml

— patent publication US4049809A, “Solution of a oxazepine for oral or parenteral administration” (priority 1976, dated 1977)
